How the values were obtained:
C57BL/6 mice = assay: Mice formalin pain model (acute and inflammatory pain); assay type: in vivo; settings: hydrochloride salt, blank vehicle 349.55 ± 43.09
Source text: 150 C57BL/6 mice (male, 9-week aged) were randomly divided into 15 groups, (each group had 10 mice) for the analgesic activity test of 3 compounds in the mice formalin pain model respectively: the compound I-1 group (compound I-1 prepared in Example 2 whose hydrochloride salt was used in the experiment), the S-duloxetine group (its hydrochloride salt was used in the experiment) and the compound C1 group (the compound C1 prepared in Comparative Example 1, whose hydrochloride salt was used in the experiment). Before the start of experiments, the mice were allowed to adapt to the experimental environment for 72 h with free feeding and drinking water. The test drugs were administrated by intraperitoneal injection at a dosage as follows:
Compound I-1 group: blank vehicle (blank saline control), 0.1 mg/kg, 0.5 mg/kg, 1 mg/kg, 5 mg/kg and 10 mg/kg;
S-duloxetine group: blank vehicle (blank saline control), 1 mg/kg, 5 mg/kg, 10 mg/kg and 20 mg/kg;
Compound C1 group: blank vehicle (blank saline control), 0.1 mg/kg, 0.5 mg/kg, 1 mg/kg, 5 mg/kg and 10 mg/kg.
After administration, the mice were placed in a transparent, ventilated plexiglass cylinder for 1 h, and then 20 μl of 4% formalin solution was injected into the left hind plantar of mice of each group by microinjector, claw pain response in mice were real-time recorded by a mini-camera. The time length of licking left claw were used as an indicator of pain response, licking time in 0-10 min (phase I) and 10-60 min (phase II) were observed and recorded, and the statistical analysis was conducted. The half effective dose (ED50) of 3 compounds were calculated: ED50 referred to the dose of the drug which decreased licking time by half as compared with the blank control group. The smaller the ED50 value was, the lower the effective analgesic dose of the compound was and the better the analgesic effect was.

Sprague-Dawley rats = assay: Rat hot plate pain model (acute pain); assay type: in vivo
Procedure: Sprague-Dawley male, mature and unmated rats were placed at hot and cold plate (product model: PE34, US IITC) with constant 53±0.1° C. Mice with painful response such as licking claw, shaking claw or slightly jumping within 10-30 s were selected, and mice which evaded and jumped were abandoned. […] The test compound was freshly prepared on the day of administration. 0.9% NaCl physiological saline solution was prepared as solvent for later use. Appropriate amount of test compound was added into required volume of physiological saline and fully suspended, and the concentration of prepared drug was 1 mg/ml. […] After administration, the latency of heat pain was measured at 0.5 h, 1 h and 2 h after administration. In order to prevent animals from being scalded on the hot plate, the maximum incubation time was set to 30 s. Maximum possible effect (MPE) % was used to evaluate analgesic effect of each compound, i.e., MPE %=[(Post drug latency−baseline latency)/(30−baseline latency)]×100. MPE % at different time points was recorded.

TRPA1 = TRPA1 (Mus musculus (Mouse), UniProt Q8BLA8); assay: IonWorks Barracuda (IWB) automated patch clamp detection of TRPA1 inhibitory activity; assay type: cell-based; settings: HEK293 cells stably expressing TRPA1; current induced by AITC; read-out: IC50 (μM), inhibitory activity on TRPA1 in the automated patch clamp detection test
Chain of TRPA1 (Q8BLA8 whole entry): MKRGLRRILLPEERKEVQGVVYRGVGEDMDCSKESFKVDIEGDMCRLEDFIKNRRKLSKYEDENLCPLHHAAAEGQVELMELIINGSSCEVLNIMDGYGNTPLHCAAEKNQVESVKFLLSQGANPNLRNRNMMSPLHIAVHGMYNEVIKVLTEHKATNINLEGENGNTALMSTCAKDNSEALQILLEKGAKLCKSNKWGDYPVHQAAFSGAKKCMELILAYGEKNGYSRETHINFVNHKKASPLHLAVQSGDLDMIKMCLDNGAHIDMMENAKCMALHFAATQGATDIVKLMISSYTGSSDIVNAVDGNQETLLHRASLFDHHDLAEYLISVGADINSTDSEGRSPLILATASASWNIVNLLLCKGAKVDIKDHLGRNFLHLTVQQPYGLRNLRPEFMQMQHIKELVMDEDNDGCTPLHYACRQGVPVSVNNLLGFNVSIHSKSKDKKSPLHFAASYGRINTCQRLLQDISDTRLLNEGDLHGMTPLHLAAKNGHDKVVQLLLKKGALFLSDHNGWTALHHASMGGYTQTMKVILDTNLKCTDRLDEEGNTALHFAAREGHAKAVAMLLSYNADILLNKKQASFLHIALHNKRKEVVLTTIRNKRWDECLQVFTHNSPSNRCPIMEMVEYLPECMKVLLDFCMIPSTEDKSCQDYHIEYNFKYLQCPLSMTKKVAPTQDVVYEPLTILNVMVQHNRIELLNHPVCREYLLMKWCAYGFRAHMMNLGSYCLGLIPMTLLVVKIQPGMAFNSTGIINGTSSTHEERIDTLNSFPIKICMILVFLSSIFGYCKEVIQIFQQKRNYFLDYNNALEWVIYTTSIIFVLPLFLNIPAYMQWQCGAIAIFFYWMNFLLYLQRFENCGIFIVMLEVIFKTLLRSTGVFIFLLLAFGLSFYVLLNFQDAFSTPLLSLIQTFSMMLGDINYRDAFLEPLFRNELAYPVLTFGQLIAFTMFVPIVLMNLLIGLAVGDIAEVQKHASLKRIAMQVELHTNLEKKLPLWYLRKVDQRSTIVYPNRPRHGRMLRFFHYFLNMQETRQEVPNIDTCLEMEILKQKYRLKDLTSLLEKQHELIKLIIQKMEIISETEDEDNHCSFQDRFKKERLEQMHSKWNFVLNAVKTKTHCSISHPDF
Procedure: The inhibitory activity of some compounds in the examples of the present invention (as shown in Table 1) on transient receptor potential channel protein TRPA1 was tested in this example. The compound of formula A (WO2010075353) was used as a positive control compound: […]
Ion Works Barracuda (IWB) automated patch clamp detection was used as test method: HEK293 cells stably expressing TRPA1 were placed in DMEM medium containing 15 μg/mL Blasticidin S HCl, 200 μg/mL Hygromycin B and 10% FBS in the T175 culture flask, and cultured in 37° C., 5% CO2 incubator. When the cell density reached about 80%, the culture medium was removed, rinsed with phosphate buffered saline (PBS) without calcium and magnesium. 3 mL of Trypsin was added to digest for 2 min, 7 mL of culture medium was added to terminate the digestion. The cells were collected to 15 mL centrifuge tube and centrifuged at 800 rpm for 3 min. After the supernatant was removed, the cells were added to appropriate volume of extracellular fluid for re-suspending, and the cell density was controlled at 2-3×10^6/mL for IWB experiment. Extracellular fluid formulation (in mM): 140 NaCl, 5 KCl, 1 MgCl2, 10 HEPES, 0.5 EGTA, 10 Glucose (pH 7.4); intracellular fluid formulation (in mM): 140 CsCl, 10 HEPES, 5 EGTA, 0.1 CaCl2, 1 MgCl2 (pH 7.2). 28 mg/mL of amphotericin B was freshly prepared with DMSO on the day of experiment, and then final concentration of 0.1 mg/mL was prepared with intracellular fluid.
Population patch clamp (PPC) plate was used in IWB experiment. The entire detection process was automatically carried out by the instrument. Extracellular fluid was added into 384 wells of PPC plate, and 6 µL of the intracellular fluid was added into plenum (under the PPC plate), 6 µL of cell fluid was added for sealing test, and finally the intracellular fluid in plenum was replaced with amphotericin B-containing intracellular fluid to establish a whole-cell recording mode after perforating sealed cells. The sampling frequency for recording TPRA1 current was 10 kHz, the cells were clamped at 0 mV, the voltage stimulation command (channel protocol) was a ramp voltage from −100 mV to +100 mV for 300 ms. This voltage stimulation was applied every 10 s, mTRPA1current was induced by 300 µM AITC.
Data recording and current amplitude measurement export were carried out by IWB software (version 2.5.3, Molecular Devices Corporation, Union City, CA). No statistics was recorded for holes with sealing impedance lower than 20 MQΩ. The original current data was corrected by software for leakage reduction. TRPA1 current amplitude was measured at +100 mV. […] If IC50 value of HC030031 exceeded 3 times the average IC50 value previously obtained on each plate, it would be re-tested. The dose-effect curve of compounds and IC50 were fitted and calculated by GraphPad Prism 5.02 (GraphPad Software, San Diego, CA).
Some compounds in the examples of the present invention were detected by lonWorks Barracuda (IWB) automated patch clamp detection method for IC50 inhibitory activity.

ICR mice = assay: Mice acetic acid writhing pain model (visceral and inflammatory pain); assay type: in vivo; settings: 10 mg/kg by gavage, 1 h before acetic acid; saline group 49 times
Procedure: Male ICR mice, 22-25 g, were fasted but allowed to drink water freely for 2 h before administration. All ICR mice were weighed and grouped randomly, each group had >10 animals. […] The drug was administrated by gavage based on the weight of mice. 1.5% acetic acid solution (0.1 ml/10 g) was injected intraperitoneally 1 h after administration, and the number of times of visceral pain in each group was observed within 30 min. When concave abdomen, stretched trunk and hind claw, and high buttocks appeared, one number point was recorded. Finally, the number of appearance of the above phenomenon was counted within 30 minutes.

SD rats = assay: Rat SNL model, mechanical allodynia test (nerve pain); assay type: in vivo; settings: 1 h after administration, 100 mg/kg oral; control group 3.967 ± 0.775
Procedure: Male SPF grade SD rats, weighed 150 g-180 g, were selected. Aseptic operation during surgery was performed. The animals were anesthetized with sodium pentobarbital (50 mg/kg, intraperitoneal injection). The surgical area of animal waist was shaved and the skin was disinfected three times with iodophor and 70% ethanol. After the skin was dried, the operation was started. Surgical knife was used to make a longitudinal incision at the back of the sacrum of the animal waist to expose the left paraspinal muscles, and stretcher was used to separate muscle tissue to expose the spine. The left spinal nerves L5 and L6 were separated and ligated with a 6-0 silk thread, and the wound was sutured. After the operation, the animals were placed on electrothermal pad, and 5 mL of saline was injected subcutaneously to prevent dehydration. After the animals were fully awakened and could move around freely, the animals were put back in the cage.
After the operation, the animals were adapted in the experimental environment for 15min/day for 3 days.
The animals were weighed to calculate the dose. […] After administration, mechanical allodynia test was performed. The rat was individually placed in a plexiglass box with a grid on the bottom of the box to ensure that the rat claw could be tested. The rats were allowed to adapt the environment for 15 min before test. After the adaptation was completed, the test fiber was used to test the center of the left hind claw of the rat. The test fiber comprises 8 test strengths: 3.61 (0.4 g), 3.84 (0.6 g), 4.08 (1 g), 4.31 (2 g), 4.56 (4 g), 4.74 (6 g), 4.93 (8 g), and 5.18 (15 g). […] During the test, rapid withdrawal of animal claw was recorded as pain response. When the test fiber was removed from animal skin, the withdrawal of animal claw was also recorded as pain response. If animal moved, the pain response was not recorded, and the test was repeated. […]
Mechanical allodynia was expressed as withdrawal threshold (PWT) in rat behavioral test, which was calculated with the following formula: […]

`CNCC[C@H](Oc1cccc2ccoc12)c1cccs1` [Compound C1, (S)-3-(benzofuran-7-yloxy)-N-methyl-3-(thiophen-2-yl)propyl-1-amine] was tested, and the “Licking claw time (s) in phase II (10-60 min)” value (from here on “Licking claw time (s)”) (C57BL/6 mice; 0.1 mg/kg intraperitoneal) was 339.35 ± 27.90 s, the “Licking claw time (s)” value (C57BL/6 mice; 0.5 mg/kg intraperitoneal) was 368.16 ± 44.46 s and the “Licking claw time (s)” value (C57BL/6 mice; 1 mg/kg intraperitoneal) was 171.57 ± 39.69 s. For the same compound, the “Licking claw time (s)” value (C57BL/6 mice; 5 mg/kg intraperitoneal) was 158.02 ± 25.18 s, the “Licking claw time (s)” value (C57BL/6 mice; 10 mg/kg intraperitoneal) was 35.68 ± 11.77 s and the MPE % (Sprague-Dawley rats; 0.5 h after administration, 30 mg/kg intraperitoneal, hydrochloride salt) was 5.29 ± 1.56%. It also gave an MPE % (Sprague-Dawley rats; 1 h after administration, 30 mg/kg intraperitoneal, hydrochloride salt) of 14.20 ± 5.71% and an MPE % (Sprague-Dawley rats; 2 h after administration, 30 mg/kg intraperitoneal, hydrochloride salt) of 21.83 ± 2.45%.
`CNCC[C@@H](Oc1cccc2c1CCC2)c1cccs1` [Compound I-9, (R)-3-((2,3-dihydro-1H-inden-4-yl)oxy)-N-methyl-3-(thienyl-2yl)propyl-1-amine] was tested, and the IC50 (TRPA1) was 6 to 10 µM.
Compound `CNCC[C@@H](Oc1cccc2ccoc12)c1ccc(C)s1` [Compound I-6, (R)-3-(benzofuran-7-yloxy)-N-methyl-3-(5-methylthiophen-2-yl)propyl-1-amine] has an IC50 (TRPA1) of 6 to 10 µM.
Compound `CN(C)CC[C@@H](Oc1cccc2ccoc12)c1cccs1` [Compound I-3, (R)-3-(benzofuran-7-yloxy)-N,N-dimethyl-3-(thiophen-2-yl)propyl-1-amine] has an IC50 (TRPA1) of 1 to 5 µM.
With `COc1ccc2c(c1)c(CC(=O)O)c(C)n2C(=O)c1ccc(Cl)cc1` [indomethacin] the “number of appearance of writhing reactions (visceral pain) within 30 min” value (ICR mice) was 28 times.
For `CN1[C@H]2C[C@H](OC(=O)[C@H](CO)c3ccccc3)C[C@@H]1[C@@H](O)C2` [anisodamine], the “number of appearance of writhing reactions (visceral pain) within 30 min” value (ICR mice) was 27 times.
Work on `NCC1(CC(=O)O)CCCCC1` [Gabapentin, gabapentin] yielded an MPE % (Sprague-Dawley rats; 0.5 h after administration, 100 mg/kg intraperitoneal) of 6.47 ± 5.49%, an MPE % (Sprague-Dawley rats; 1 h after administration, 100 mg/kg intraperitoneal) of 14.56 ± 6.18% and an MPE % (Sprague-Dawley rats; 2 h after administration, 100 mg/kg intraperitoneal) of 22.66 ± 4.93%. For the same compound, the “PWT(g), claw withdrawal threshold” value (SD rats) was 6.352 ± 1.897 g.
`CNCC[C@@H](Oc1cccc2ccccc12)c1cccs1` [R-duloxetine] gave an IC50 (TRPA1) of 21 to 50 µM.
`CNCC[C@@H](Oc1cccc2ccoc12)c1ccsc1` [Compound I-5, (R)-3-(benzofuran-7-yloxy)-N-methyl-3-(thiophen-3-yl)propyl-1-amine] showed an IC50 (TRPA1) of 1 to 5 µM.
`CNCC[C@@H](Oc1cccc2occc12)c1cccs1` [Compound I-11, (R)-3-(benzofuran-4-yloxy)-N-methyl-3-(thiophen-2-yl)propyl-1-amine] gave an IC50 (TRPA1) of 6 to 10 µM.
In the case of `NCC[C@@H](Oc1cccc2ccoc12)c1cccs1` [Compound I-2, (R)-3-(benzofuran-7-yloxy)-3-(thiophen-2-yl)propyl-1-amine], the IC50 (TRPA1) is reported as 6 to 10 µM.
Work on `CNCC[C@@H](Oc1cccc2ccoc12)c1ccccc1` [Compound C2, (R)-3-(benzofuran-7-yloxy)-N-methyl-3-phenylpropyl-1-amine] yielded an IC50 (TRPA1) of 11 to 20 µM.
`CNCC[C@@H](Oc1cccc2ccoc12)c1ccco1` [Compound I-8, (R)-3-(benzofuran-7-yloxy)-3-(furan-2-yl)-N-methylpropyl-1-amine] was tested, and the IC50 (TRPA1) was 1 to 5 µM.
`CCNCC[C@@H](Oc1cccc2ccoc12)c1cccs1` [Compound I-4, (R)-3-(benzofuran-7-yloxy)-N-ethyl-3-(thiophen-2-yl)propyl-1-amine] gave an IC50 (TRPA1) of 1 to 5 µM.
With `C[C@H]1CCCN1c1ccc(-c2csc(NC(=O)Cn3cnc4c3c(=O)n(C)c(=O)n4C)n2)cc1F` [Compound of formula A] the IC50 (TRPA1) was 51 to 100 µM.

From patent US20250042884A1, “3-ARYLOXYL-3-FIVE-MEMBERED HETEROARYL PROPYLAMINE COMPOUND AND USE THEREOF” (Shanghai Leado Pharmatech Co. Ltd., priority 2018, published 2025)
